Assay results published in patent US7598397B2, “Sulfonamide peri-substituted bicyclics for occlusive artery disease” (deCODE genetics ehf, priority 2004, dated 2009).
Where two headings read alike, the source gives them in different places.

What was measured:
female C57BL/6 mice = test: pulmonary thromboembolism induced by arachidonic acid (platelet aggregation in vivo); set-up: species or system mouse; conditions: 100 mg/kg orally, 30 min before arachidonic acid 30 mg/kg i.v.; survival one hour after challenge
Protocol: The compounds of the invention also were assayed for their effects on platelet aggregation in vivo. An in vivo test of platelet activation is the induction of pulmonary thromboembolism by arachidonic acid, a precursor of prostaglandin formation. Inhibitors of prostaglandin synthesis, e.g., a COX-1 inhibitor such as asprin, are protective in the assay. For the pulmonary thromboembolism assay, concious female C57BL/6 mice were dosed orally with the test compounds and 30 min later thromboembolism was induced by injection of arachidonic acid into a tail vein at a dose of 30 mg per kg body weight. Survival was evaluated one hour after the challenge with arachidonic acid, as mice that survive for that length of time usually recovered fully. The arachidonic acid injection was given via a lateral tail vein in a mouse that had been warmed briefly under a heat lamp (dilation of the tail veins using heat facilitates placing the injection). An insulin syringe, 0.5 mL (from Becton Dickinson) was used for dosing. The dose volume given of both the test compound and the arachidonic acid was adjusted to the weight of the mouse (the dose volume p.o. for test compounds and i.v. for arachidonic acid solution was 10 μL and 5 μL per gram body weight, respectively). The survival rate for mice treated with arachidonic acid only was 1 per 10 mice evaluated or 10%. Survival rates for mice treated with test compounds (100 mg/kg, orally) and then arachidonic acid are shown below in Table 4.

rat platelets = test: platelet aggregation in vitro, rat platelets; assay type: cell-based; conditions: Serum % 20, read-out: IC50 (nM) for Test Compounds
Protocol: (§1) The compounds of the invention were assayed for their effects on platelet aggregation in vitro. In experiments with human platelets, whole blood was extracted from overnight-fasted human donors. Each experiment was performed with blood from single individual. In experiments with rodent platelets, whole blood was gathered from the heart of female mice or male rats under isofluran (Abbott) anaesthesia. Blood was pooled from two or ten individual rodents for each experiment in the case of rat and mouse experiments, respectively. In all cases, blood was collected into 3.8% sodium citrate tubes (Greiner Bio-one). Platelet-rich plasma (PRP) was obtained by centrifugation at 100×g for 15 min at 25° C. for humans, at 150×g for rats, or at 80×g for 10 min for mice. Platelet-poor plasma was obtained by centrifugation of the remaining blood at 2,400×g for 10 min at 25° C. After counting in an Autocounter (Model 920 EO, Swelab) platelets were diluted when necessary to the desired stock concentrations (200,000-300,000 platelets/μl) using 0.9% NaCl isotonic solution (Braun).
Platelet aggregation was determined by light absorbance using a platelet aggregometer with constant magnetic stirring (Model 490, Chronolog Cop., Havertown, Pa., USA), using a volume of 500 μl per cuvette. […] IC50 values of test compounds were calculated using GraphPad Prism 3.02 for Windows (GraphPad Software, San Diego Calif. USA). […]

prostanoid EP3 receptors = target: T1, prostanoid EP3 receptors (Homo sapiens, UniProt P43115); test: binding on prostanoid EP3 receptors (method of Abramovitz et al.); conditions: read-out: Activity (EP3 receptor binding, IC50 class)
T1 sequence (P43115 1-390): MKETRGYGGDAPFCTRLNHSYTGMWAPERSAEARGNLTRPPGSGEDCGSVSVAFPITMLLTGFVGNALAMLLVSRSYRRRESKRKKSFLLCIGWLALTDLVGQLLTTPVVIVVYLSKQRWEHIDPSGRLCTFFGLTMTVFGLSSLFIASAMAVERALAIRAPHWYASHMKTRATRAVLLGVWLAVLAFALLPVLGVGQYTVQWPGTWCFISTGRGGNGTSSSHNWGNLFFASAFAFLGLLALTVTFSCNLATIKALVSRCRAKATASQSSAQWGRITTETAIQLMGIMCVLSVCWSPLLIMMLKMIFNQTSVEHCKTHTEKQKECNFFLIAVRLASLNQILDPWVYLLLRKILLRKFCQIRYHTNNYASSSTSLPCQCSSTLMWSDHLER
Protocol: The compounds of the invention were assayed for their binding on prostanoid EP3 receptors according to the method of Abramovitz et al. [Bioch. Biophys.

human platelets = test: platelet aggregation in vitro, human platelets; assay type: cell-based; conditions: Serum % 50, read-out: IC50 (nM) for Test Compounds
Protocol: as §1
Platelet aggregation was determined by light absorbance using a platelet aggregometer with constant magnetic stirring (Model 490, Chronolog Cop., Havertown, Pa., USA), using a volume of 500 μl per cuvette. During the performance of the experiments, platelet solution was continually agitated by mild horizontal shaking. Collagen (Sigma) and PGE2 or sulprostone (Cayman Chemicals) were used as accelerants of platelet aggregation. Compounds used for this assay were dissolved and stored in a 100% DMSO solution. After dilution, the final DMSO concentration in the assay was lower than 0.1% v/v. […] Acceleration agents and EP3 test compounds were diluted in isotonic solution at the desired concentration. Sigmoidal non-lineal regression was used to calculate the concentration of test compound required to inhibit platelet aggregation by 50% (IC50). IC50 values of test compounds were calculated using GraphPad Prism 3.02 for Windows (GraphPad Software, San Diego Calif. USA). […]

Row | IC50 (prostanoid EP3 receptors) [nM] | Structure (SMILES) | No. mice surviving/Total no. of mice evalauted (female C57BL/6 mice) | Survival rate (female C57BL/6 mice) [%] | further results
1 | < 1000 | CC12CCCC(C=CC(=O)NS(=O)(=O)c3cc(Cl)c(Cl)s3)=C1N(Cc1ccc3ccccc3c1)C(=O)C2 (stereo not drawn) [Compound P253] |  |  | IC50 (human platelets; agonist Sulprostone (100 nM) and collagen (0.125 ug.mL)): 15.9 nM
2 | < 1000 | O=C(C=Cc1cccc2c1N(Cc1ccc3ccccc3c1)C(=O)C2)NS(=O)(=O)c1cc(F)c(F)cc1F [Compound P416] |  |  | 

The next lines start with the molecule.

Row | Structure (SMILES) | IC50 (prostanoid EP3 receptors) [nM] | No. mice surviving/Total no. of mice evalauted (female C57BL/6 mice) | Survival rate (female C57BL/6 mice) [%] | further results
3 | Cc1cn(Cc2ccc(Cl)cc2Cl)c2c(C=CC(=O)NS(=O)(=O)c3cc(Cl)c(Cl)s3)cc(F)cc12 [Compound P067] | < 1000 | 15/22 | 68 | IC50 (rat platelets; agonist PGE2 (940 nM) and collagen (2.0 ug.mL)): 304 nM; IC50 (rat platelets; agonist Sulprostone (100 nM) and collagen (2.0 ug.mL)): 87.8 nM; IC50 (human platelets; Homo sapiens, agonist PGE2 (940 nM) and collagen (0.125 ug.mL)): 5.15 nM; IC50 (human platelets; Homo sapiens, agonist Sulprostone (100 nM) and collagen (0.125 ug.mL)): 9.21 nM
4 | Cc1cn(Cc2ccc3ccccc3c2)c2c(C=CC(=O)NS(=O)(=O)c3cc(Cl)c(Cl)s3)cc(F)cc12 [Compound P068] |  | 4/14 | 28 | 
5 | O=C(COc1cccc2[nH]cc(S(=O)(=O)c3ccc4ccccc4c3)c12)NS(=O)(=O)c1cc(Cl)c(Cl)s1 [Compound P150] |  | 4/8 | 50 | 
6 | Cc1cn(Cc2ccc(Cl)cc2Cl)c2c(C(=O)NS(=O)(=O)c3ccc(F)c(F)c3)cc(F)cc12 [Compound P417] | < 1000 |  |  | 
